From patent US12053451B2, “Arginase inhibitors and their therapeutic applications” (OncoArendi Therapeutics S.A., priority 2016, dated 2024)
Structures can show the parent of a compound that is named as a salt.

molecular target: T1, recombinant human arginase 1 (Homo sapiens, UniProt P05089); test: Human arginase activity assay (urea measurement), arginase 1; type: biochemical; conditions: recombinant human arginase 1, pH 7.4, 37° C., 60 min; * = value for the most potent diastereoisomer or the mixture of diastereoisomers; read-out: Activity Class (ARG I)
T1 construct: purchased Biolegend 552502
T1 sequence (P05089 1-322): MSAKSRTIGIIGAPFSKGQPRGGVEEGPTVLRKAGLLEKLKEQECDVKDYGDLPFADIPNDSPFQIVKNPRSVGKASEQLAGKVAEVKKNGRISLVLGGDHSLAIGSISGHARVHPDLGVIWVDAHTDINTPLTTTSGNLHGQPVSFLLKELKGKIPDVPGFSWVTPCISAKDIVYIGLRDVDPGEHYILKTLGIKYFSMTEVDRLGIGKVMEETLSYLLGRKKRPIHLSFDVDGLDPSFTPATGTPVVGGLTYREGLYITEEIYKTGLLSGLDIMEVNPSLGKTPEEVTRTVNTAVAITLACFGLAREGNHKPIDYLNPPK
Protocol: (§1) Human Arginase Activity Assay
The assay was run in the 96-well plate format, each reaction in the total volume of 100 uL. The assay is based on urea measurement, which is a product of L-arginine enzymatic degradation. […] The color product is developed by adding a mixture of reagent A (4 mM oPA in 50 mM boric acid in 1M sulfuric acid, 0.03% Brij-35) and reagent B (4 mM NED in 50 mM boric acid in 1M sulfuric acid, 0.03% Brij-35) in equal proportions. The absorbance for each well was measured at 530 nm.
(§2) For positive control, only the enzyme and substrate were used, the negative controls contained substrate solution with assay buffer. After incubating the microtiter plate at 37° C. for 60 min 150 μL of mixed reagents A and B was added to each well to stop the reaction. Absorbance was measured (λ=530 nm) 20 minutes later, after color development. The urea production in the absence of any compound was considered the maximum arginase activity. The absorbance in the absence of arginase (background) was subtracted from all the values. The normalized OD was used to generate a concentration-response curve by plotting the percent of inhibition against log[concentration] of the compound and using regression analysis (GraphPad Prism 7.0) to compute the IC50 values.

Row | SMILES | IC50
1 | NC1(C(=O)O)C[C@H](CCB(O)O)CC[C@@H]1O (mixture of isomers) [Example 16, rac-(2S,5R)-1-Amino-5-(2-boronoethyl)-2-hydroxycyclohexane-1-carboxylic acid hydrochloride] | 10 to 100 µM
2 | COC(=O)[C@@]1(N)C[C@H](CCB(O)O)CC[C@H]1CN(C)C [Example 43, (2-((1R,3R,4S)-3-amino-4-((dimethylamino)methyl)-3-(methoxycarbonyl)cyclohexyl)ethyl)boronic acid dihydrochloride] | 10 to 100 µM
3 | N[C@@]1(C(=O)O)COC[C@H](CCB(O)O)C1 (racemic) [Example 60, rac-(3R,5R)-3-amino-5-(2-boronoethyl)tetrahydro-2H-pyran-3-carboxylic acid hydrochloride] | 10 to 100 µM
4 | C[C@H]1[C@H](CCB(O)O)CCC1(N)C(=O)O (mixture of isomers) [Example 2, rac-(2S,3R)-1-amino-3-(2-boronoethyl)-2-methylcyclopentane-1-carboxylic acid] | > 100 µM
5 | N[C@@]1(C(=O)O)CNC[C@H](CCB(O)O)C1 (racemic) [Example 58, rac-(3R,5R)-3-amino-5-(2-boronoethyl)piperidine-3-carboxylic acid] | 10 to 100 µM
6 | CN(C)C1CCC(CCB(O)O)CC1(N)C(=O)O (racemic) [Example 64, rac-(1R,5R)-1-amino-5-(2-boronoethyl)-2-(dimethylamino)cyclohexane-1-carboxylic acid dihydrochloride] | 10 to 100 µM
7 | N[C@@]1(C(=O)O)C[C@H](CCB(O)O)CC[C@H]1O (racemic) [Example 14, rac-(1S,2R,5R)-1-Amino-5-(2-boronoethyl)-2-hydroxycyclohexane-1-carboxylic acid hydrochloride] | 10 to 100 µM
8 | N[C@]1(C(=O)O)CCC[C@@H](CCB(O)O)C1 (racemic) [Example 11, rac-(1R,3R)-1-Amino-3-(2-boronoethyl)cyclohexane-1-carboxylic acid hydrochloride] | 10 to 100 µM
9 | NC1(C(=O)O)CC(CCB(O)O)N(Cc2ccccc2)C1 (stereo not drawn) [Example 8, 3-Amino-1-benzyl-5-(2-boronoethyl)pyrrolidine-3-carboxylic acid dihydrochloride] | > 100 µM

The remaining lines, values ahead:

Row | IC50 | SMILES
10 | 1 to 10 µM | NC1(C(=O)O)CC(CCB(O)O)CCC1CN1CCOCC1 (stereo not drawn) [Example 20, 1-Amino-5-(2-boronoethyl)-2-(morpholinomethyl)cyclohexane-1-carboxylic acid dihydrochloride]
11 | 10 to 100 µM | CC([C@@H]1CC[C@@H](CCB(O)O)C[C@]1(N)C(=O)O)N(C)C (stereo partly drawn) [Example 42, (1R,2S,5R)-1-amino-5-(2-boronoethyl)-2-(1-(dimethylamino)ethyl)cyclohexanecarboxylic acid dihydrochloride]
12 | 1 to 10 µM | NC[C@H]1C[C@](N)(C(=O)O)C[C@@H]1CCB(O)O (racemic) [Example 6, rac-(1S,3S,4S)-1-Amino-3-(aminomethyl)-4-(2-boronoethyl)cyclopentane-1-carboxylic acid dihydrochloride]
13 | 0.1 to 1 µM | CN(Cc1ccccc1)CC1CCC(CCB(O)O)CC1(N)C(=O)O (stereo not drawn) [Example 21, 1-Amino-2-((benzyl(methyl)amino)methyl)-5-(2-boronoethyl)cyclohexane-1-carboxylic acid dihydrochloride]
14 | 10 to 100 µM | CN(C)CC1CC(CCB(O)O)CC1(N)C(=O)O (racemic) [Example 67, 1-amino-4-(2-boronoethyl)-2-((dimethylamino)methyl)cyclopentane-1-carboxylic acid]
15 | 0.1 to 1 µM | N[C@]1(C(=O)O)C[C@H](CCB(O)O)CC[C@H]1CN1Cc2ccccc2C1 (racemic) [Example 29, rac-(1R,2S,5R)-1-amino-5-(2-boronoethyl)-2-(isoindolin-2-ylmethyl)cyclohexanecarboxylic acid dihydrochloride]
16 | 0.1 to 1 µM | CC1=CCC(CCB(O)O)CC1(N)C(=O)O (stereo not drawn) [Example 51, 1-amino-5-(2-boronoethyl)-2-methylcyclohex-2-enecarboxylic acid hydrochloride]
17 | 1 to 10 µM | NC[C@H]1C[C@@](N)(C(=O)O)C[C@@H]1CCB(O)O (racemic) [Example 7, rac-(1R,3S,4S)-1-Amino-3-(aminomethyl)-4-(2-boronoethyl)cyclopentane-1-carboxylic acid dihydrochloride]
18 | 0.1 to 1 µM | N[C@]1(C(=O)O)C[C@H](CCB(O)O)CC[C@H]1CN1CCC(c2ccc(Cl)cc2)CC1 (racemic) [Example 27, rac-(1R,2S,5R)-1-amino-5-(2-boronoethyl)-2-((4-(4-chlorophenyl)piperidin-1-yl)methyl)cyclohexanecarboxylic acid dihydrochloride]
19 | 1 to 10 µM | NC1(C(=O)O)CC(CCB(O)O)CCC1CO (stereo not drawn) [Example 49, 1-amino-5-(2-boronoethyl)-2-(hydroxymethyl)cyclohexanecarboxylic acid hydrochloride]
20 | 0.001 to 0.1 µM | NC1(C(=O)O)CC(CCB(O)O)CCC1CCN1CCCC1 (racemic) [Example 25, 1-Amino-5-(2-boronoethyl)-2-(2-(pyrrolidin-1-yl)ethyl)cyclohexane-1-carboxylic acid dihydrochloride]
21 | 1 to 10 µM | CN(C)C[C@@H]1C[C@@H](CCB(O)O)CC(N)(C(=O)O)C1 (mixture of isomers) [Example 55, rac-(3R,5R)-1-amino-3-(2-boronoethyl)-5-((dimethylamino)methyl)cyclohexanecarboxylic acid dihydrochloride]
22 | 0.001 to 0.1 µM | CN(C)C[C@@H]1CC[C@@H](CCB(O)O)C[C@]1(N)C(=O)O (racemic) [Example 17, rac-(1R,2S,5R)-1-Amino-5-(2-boronoethyl)-2-((dimethylamino)methyl)-cyclohexane-1-carboxylic acid dihydrochloride]
23 | 0.1 to 1 µM | NCC1CC(CCB(O)O)CC1(N)C(=O)O (stereo not drawn) [Example 66, 1-amino-2-(aminomethyl)-4-(2-boronoethyl)cyclopentane-1-carboxylic acid dihydrochloride]
24 | 0.001 to 0.1 µM | N[C@]1(C(=O)O)C[C@H](CCB(O)O)CC[C@H]1CN1CCCC1 [Example 23, (1R,2S,5R)-1-Amino-5-(2-boronoethyl)-2-(pyrrolidin-1-ylmethyl)-cyclohexane-1-carboxylic acid dihydrochloride]

molecular target: T2, recombinant human arginase 2 (Homo sapiens, UniProt P78540); test: Human arginase activity assay (urea measurement), arginase 2; type: biochemical; conditions: for selected examples class estimated from % of inhibition at 1 μM and 100 μM, * = most potent diastereoisomer or mixture of diastereoisomers, read-out: Activity Class (ARG II)
T2 construct: made in house; host or cells: CHO
T2 sequence (P78540 23-354): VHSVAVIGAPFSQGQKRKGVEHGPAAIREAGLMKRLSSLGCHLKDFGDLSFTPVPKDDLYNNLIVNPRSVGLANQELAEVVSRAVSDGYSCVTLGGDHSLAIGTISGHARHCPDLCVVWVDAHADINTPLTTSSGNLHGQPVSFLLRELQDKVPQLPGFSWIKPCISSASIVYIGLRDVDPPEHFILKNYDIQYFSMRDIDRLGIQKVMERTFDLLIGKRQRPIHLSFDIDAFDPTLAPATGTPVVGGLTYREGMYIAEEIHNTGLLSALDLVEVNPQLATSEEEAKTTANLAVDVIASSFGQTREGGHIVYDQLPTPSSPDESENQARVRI
Protocol: as §1
An enzymatic assay with recombinant human arginases 1 (Biolegend, Cat. No. 552502) and 2 (homemade in eukaryotic expression system of CHO, purified by FPLC) was used in order to assess inhibitory activity of the compounds. The assay was run in the 96-well plate format, each reaction in the total volume of 100 uL. The assay is based on urea measurement, which is a product of L-arginine enzymatic degradation. (Baggio et al. J Pharmacol. Exp. Ther. 1999, 290, 1409-1416). The color product is developed by adding a mixture of reagent A (4 mM oPA in 50 mM boric acid in 1M sulfuric acid, 0.03% Brij-35) and reagent B (4 mM NED in 50 mM boric acid in 1M sulfuric acid, 0.03% Brij-35) in equal proportions. The absorbance for each well was measured at 530 nm.
as §2, with “Briefly, to each well of a 96-well microtiter plate 40 μL of enzyme in the reaction assay buffer (pH 7.4, 100 mM sodium phosphate buffer, 130 mM NaCl, 1 mg/mL albumin), 50 μL of the test compound solution and 10 μL of enzyme substrate solution (L-arginine hydrochloride, natural pH 5.6, final concentration 20 mM and a cofactor—manganese chloride, final concentration 150 μM) was added. For” for “For”
For selected examples the activity class for ARG2 was estimated based on % of inhibition for 1 μM and 100 μM concentration of tested compounds.

Row | SMILES | IC50
25 | NC1(C(=O)O)C[C@H](CCB(O)O)CC[C@@H]1O (mixture of isomers) [Example 16, rac-(2S,5R)-1-Amino-5-(2-boronoethyl)-2-hydroxycyclohexane-1-carboxylic acid hydrochloride] | 10 to 100 µM
26 | C[C@H]1[C@H](CCB(O)O)CCC1(N)C(=O)O (mixture of isomers) [Example 2, rac-(2S,3R)-1-amino-3-(2-boronoethyl)-2-methylcyclopentane-1-carboxylic acid] | > 100 µM
27 | NC1(C(=O)O)CCC(CCB(O)O)C1 (racemic) [Example 1, 1-amino-3-(2-boronoethyl)cyclopentane-1-carboxylic acid] | 1 to 10 µM

The next lines start with the values.

Row | IC50 | SMILES
28 | 1 to 10 µM | NC[C@H]1C[C@](N)(C(=O)O)C[C@@H]1CCB(O)O (racemic) [Example 6, rac-(1S,3S,4S)-1-Amino-3-(aminomethyl)-4-(2-boronoethyl)cyclopentane-1-carboxylic acid dihydrochloride]
29 | 1 to 10 µM | CN(Cc1ccccc1)CC1CCC(CCB(O)O)CC1(N)C(=O)O (stereo not drawn) [Example 21, 1-Amino-2-((benzyl(methyl)amino)methyl)-5-(2-boronoethyl)cyclohexane-1-carboxylic acid dihydrochloride]
30 | 1 to 10 µM | CC1=CCC(CCB(O)O)CC1(N)C(=O)O (stereo not drawn) [Example 51, 1-amino-5-(2-boronoethyl)-2-methylcyclohex-2-enecarboxylic acid hydrochloride]
